US20030216358A1, “Method for enhancing bone mineral density gain” (priority 2003, published 2003)

System: postmenopausal women
Assay: Clinical data, summary in words: BMD and bone turnover markers after alendronate followed by raloxifene
Format: in vivo, human
Conditions: alendronate for one year followed sequentially by raloxifene alone
Description: A phase 3, multicenter, double-blind, placebo-controlled, randomized clinical trial was conducted. Objectives of the trial included comparing the effects of 12 months treatment with raloxifene HCl (60 mg/day), alendronate (10 mg/day), or the combination of the two agents together versus placebo on BMD at the lumbar spine and at the hip and also metabolic markers of bone turnover. Additional objectives included comparing the effects of raloxifene 60 mg/day versus placebo during a second year of study on the offset of action of raloxifene or alendronate, as assessed by these same efficacy parameters.
Three hundred thirty-one (331) subjects were randomly assigned to one of four initial treatment groups: placebo, raloxifene 60 mg/day, alendronate 10 mg/day or raloxifene plus alendronate together. After one year of therapy all subjects were re-randomized to receive either placebo or raloxifene 60 mg/day for an additional year of study. All subjects received approximately 500 mg of elemental calcium plus 400-600 I.U. of vitamin D/day throughout the entire study. […] In addition subjects had BMD and biochemical markers of bone turnover (including serum osteocalcin) repeated at six monthly intervals.

## O=C(c1ccc(OCCN2CCCCC2)cc1)c1c(-c2ccc(O)cc2)sc2cc(O)ccc12 [raloxifene, 6-hydroxy-2-(4-hydroxyphenyl)-3-[4-(2-piperidinoethoxy)benzoyl]-benzo[b]thiophene]
  bone turnover markers: either return towards normal or remain suppressed but do not further decrease
Compared to alendronate followed by placebo
  BMD: further increases of BMD
